Like-named read-outs stand apart in the source and are kept apart here.

The test system of the test is serum glucose. As to the kind of experiment: Hypoglycemic activity in alanine-induced mice (percent lowering of serum glucose; ED50). Format: in vivo, male Swiss-Webster mice. The following applies: for inhibition in vivo at 60 mg/kg / ED50: Mus musculus, ip, 1 h; for inhibition in vivo at 60 mg/kg: 60 mg/kg intraperitoneal, 15 min before 10 mmol/kg L-alanine i.p., serum glucose 60 min after compound, 100% = lowering from alanine-induced level to fasted control level, read-out: % Lowering Blood Sugar; for ED50: read-out: ED50 (amount required to obtain a 50% reduction in serum glucose as compared to the control animals). The method, then: Alanine is the most glucogenic of the amino acids and also stimulates gluconeogensis in normal animals. Animals suffering from diabetes show an exaggerated hyperglycemic response to a protein or amino acid meal, therefore the hyperglycemic state induced by alanine closely parallels the response of a diabetic mammal.
Fifteen minutes later the same mice were injected intrapertioneally with 10 m moles/kg body weight of L-alanine. Sixty minutes after injection of the active compound, the animals were sacrificed and their sera were analyzed for glucose. The control consisted of both fasted mice and mice injected with alanine. The results are expressed as percent lowering of serum glucose from the alanine induced hyperglycemic level to the fasted control glucose level, i.e. lowering to the fasting glucose level is 100% lowering.
The effective dose (ED50) of several of the subject compounds were determined.
*effective dose represents the amount of the active ingredient required t
obtain a 50% reduction in serum glucose as compared to the control

Where [1] appears, read: 50% reduction in serum glucose vs control animals.

With `O=C(O)c1ccc(Nc2ccccc2)cc1` [Example 1, p-anilinobenzoic acid], the inhibition in vivo at 60 mg/kg amounted to 88%.
The same measure, in the same setting: for `O=C(O)c1ccc(NCc2ccc(F)cc2)cc1` [Example 6, 4-(((4-fluorophenyl)methyl)amino)benzoic acid] the value was 110%; for `O=C(O)c1ccc(NCc2ccc(C(F)(F)F)cc2)cc1` [Example 11, 4-(((4-(trifluoromethyl)phenyl)methyl)amino)benzoic], 106%.
One may read the ED50 as the dose that gives a 50% effect, or the effect in half of the subjects. As to `O=C(O)c1ccc(NCc2ccc(Cl)cc2)cc1.[Na]` [Example 12, 4-(((4-chlorophenyl)methyl)amino)benzoic acid sodium], the median effective dose (ED50) was 6 mg/kg.
Take `O=C(O)c1ccc(NCc2ccc(Br)s2)cc1` [Example 15, 4-(((5-bromo-2-thienyl)methyl)amino)benzoic acid]: the inhibition in vivo at 60 mg/kg stood at 210%. Moreover, the 50% effective dose (ED50) under setting [1] came out at 4.6 mg/kg. The “hypoglycemic activity at low dosage (in words)” value (mice, dosages as low as 7.5 mg per kg of body weight) is given as “significant hypoglycemic activity”. The “hypoglycemic activity (in words)” value (mice, compounds tested) is reported as “highest activity as a hypoglycemic agent of the compounds tested”.
With `CC(C)c1ccc(CNc2ccc(C(=O)O)cc2)cc1` [Example 2, 4-(((4-(1-methylethyl)phenyl)methyl)amino)benzoic acid], the inhibition in vivo at 60 mg/kg amounted to 78%.
Take `O=C(O)c1ccc(NCc2cc(Cl)c(Cl)s2)cc1` [Example 14, 4-(((4,5-dichloro-2-thienyl)methyl)amino)benzoic acid]: the inhibition in vivo at 60 mg/kg came to 83%.
For the compound `CCc1ccc(CNc2ccc(C(=O)O)cc2)cc1` [Example 5, 4-(((4-ethylphenyl)methyl)amino)benzoic acid], the inhibition in vivo at 60 mg/kg came out at 96%. Also, the ED50 under setting [1] was 15 mg/kg.
As to `Cc1ccc(CNc2ccc(C(=O)O)cc2)cc1` [Example 4, 4-(((4-methylphenyl)methyl)amino)benzoic acid], the inhibition in vivo at 60 mg/kg was 144%. The ED50 under setting [1] is 15 mg/kg.
Take `O=C(O)c1ccc(NCc2ccc(Cl)cc2)cc1` [Example 3, 4-(((4-chlorophenyl)methyl)amino)benzoic acid]: the inhibition in vivo at 60 mg/kg was determined as 111%. Moreover, the 50% effective dose (ED50) under setting [1] came to 11 mg/kg.
Turning to `O=C(O)c1ccc(NCc2cccs2)cc1` [Example 8, 4-((2-thienylmethyl)amino)benzoic acid], the inhibition in vivo at 60 mg/kg was determined as 51%.
With `CCOC(=O)c1ccc(NCc2cccs2)cc1` [Example 7, 4-((2-thienylmethyl)amino)benzoic acid ethyl ester], the inhibition in vivo at 60 mg/kg amounted to 78%.
Consider `O=C(O)c1ccc(NCc2cccc(F)c2)cc1` [Example 13, 4-(((3-fluorophenyl)methyl)amino)benzoic acid], for which the inhibition in vivo at 60 mg/kg amounted to 52%.
With `O=C(O)c1ccc(NCCCc2ccccc2)cc1` [Example 10, 4-((3-phenylpropyl)amino)benzoic acid], the inhibition in vivo at 60 mg/kg was determined as 99%.
On to `O=C(O)c1ccc(NCc2cccc(Cl)c2)cc1` [Example 9, 4-(((3-chlorophenyl)methyl)amino)benzoic acid], for which the inhibition in vivo at 60 mg/kg stood at 64%.

The values are drawn from patent US4207330A, “Method for treating hyperglycemia in mammals using arylamino benzoic acids” (The Dow Chemical Company, priority 1979, dated 1980).
